pEC50: −log10 of the molar value.
Test system: dog MCH receptor
Assay: Aequorin bioluminescence assay in 293-AEQ17 cells transfected with dog MCH receptor
Assay type: cell-based
Details: 293-AEQ17 cells transfected with dog MCH receptor plasmid; fractional response of aequorin luminescence; read-out: EC50 value for activation of the dog MCH receptor
Procedure: Measurement of MCH receptor expression in the aequorin-expressing stable reporter cell line 293-AEQ17 (Button et al., 1993, Cell Calcium, 14, 663–671) was performed using a Luminoskan RT luminometer (Labsystems Inc., Gaithersburg, Md.) controlled by custom software written for a Macintosh PowerPC 6100. 293-AEQ17 cells (8×10^5 cells plated 18 hours before transfection in a T75 flask) were transfected with 22 μg of dog MCH receptor plasmid DNA: 264 μg lipofectamine.
Following approximately 40 hours of expression the apo-aequorin in the cells was charged for 4 hours with coelenterazine (10 μM) under reducing conditions (300 μM reduced glutathione) in ECB buffer (140 mM NaCl, 20 mM KCl, 20 mM HEPES-NaOH [pH=7.4], 5 mM glucose, 1 mM MgCl2, 1 mM CaCl2, 0.1 mg/ml bovine serum albumin). […] 100 μl of cell suspension (corresponding to 5×10^4 cells) was then injected into the test plate containing MCH, and the integrated light emission was recorded over 30 seconds, in 0.5 second units. 20 μL of lysis buffer (0.1% final Triton X-100 concentration) was then injected and the integrated light emission recorded over 10 seconds, in 0.5 second units.
The “fractional response” values for each well were calculated by taking the ratio of the integrated response to the initial challenge to the total integrated luminescence including the Triton X-100 lysis response. […]

Sequence of dog MCH receptor (as listed by the source): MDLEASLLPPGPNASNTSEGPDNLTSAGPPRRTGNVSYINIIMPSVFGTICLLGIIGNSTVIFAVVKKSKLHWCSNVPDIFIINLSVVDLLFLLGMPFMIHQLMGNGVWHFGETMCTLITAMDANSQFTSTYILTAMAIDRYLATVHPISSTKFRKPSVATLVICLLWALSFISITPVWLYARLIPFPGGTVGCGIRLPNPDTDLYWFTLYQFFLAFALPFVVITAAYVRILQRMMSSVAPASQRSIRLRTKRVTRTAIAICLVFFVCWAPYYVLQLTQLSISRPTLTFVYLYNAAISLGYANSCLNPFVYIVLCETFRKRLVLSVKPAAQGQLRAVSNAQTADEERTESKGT

Substance: Melanin-concentrating hormone [MCH]
- pEC50: ~7.52

— patent US7148026B2, “Dog melanin-concentrating hormone receptor” (Merck & Co., Inc., priority 2000, dated 2006)
